Measurements published in patent US8241607B2, “Use of fructose-based compounds for the diagnosis of cancer” (priority 2005, dated 2012).

What was measured:
transketolase (TKK) = assay: Transketolase activity in PANC-1 lysates (NADH oxidation); format: cell-based; conditions: 5.5 mM fructose, 72 h
Description: FIG. 34 depicts quantitation of transketolase activity in pancreatic cancer PANC-1 cells following incubation in 2 mM glucose, 5.5 mM glucose, and 5.5 mM fructose for 24 h, 48 h, and 72 h respectively, in accordance with an embodiment of the present invention.
The inventors believe that fructose-treatment of pancreatic cancer cells led to an increase in TKK-driven nucleic acid synthesis, and thus fructose-treatment would result in an increase in either PANC-1 TKK expression and/or activity in comparison to equivalent glucose concentrations. Western blot analysis on protein lysates derived from fructose-, and glucose-treated PANC-1 cells were performed (5.5 mM fructose, and glucose for 24, and 48 h as per previous protocol) using a specific TKK antibody, and compared TKK expression in the fructose-, and glucose-treated PANC-1 cells. As depicted in FIG. 33, TKK expression at 24 h, and 48 h in protein lysates derived from 5.5 mM glucose-treated PANC-1 cells was increased in comparison to expression in 2 mM glucose-treated cells. […] After gentle mixing the absorbance of the mixture was measured at 10 min intervals for 2 h at 340 nm. Transketolase activity was then derived from the difference in absorbance at 10, and 80 minutes, and expressed as nmol/min/million cells. […] Pancreatic cancer proliferation rates were then measured using the MTS assay (FIG. 35).

normal pancreas tissue = assay: Substrate oxidation with 13C tracers in primary culture of normal pancreas; format: cell-based, human; conditions: 5.5 mM, 72 h
Description: FIG. 31 depicts substrate oxidation in accordance with an embodiment of the present invention. Substrate oxidation in a primary culture of a normal pancreas (left), and a pancreatic cancer (right) following incubation in 2 mM, or 5 mM glucose, or 5 mM fructose for 72 h.
In separate studies, the inventors treated primary cultures of 4 pancreatic adenocarcinomas, and 3 normal pancreas tissues with the [1,2-^13C2]D-glucose-, or -fructose-tracers as before for 72 h, and carried out metabolic studies.

[1] = Serum fructose in normal volunteers after two cans of soda (fructose dehydrogenase assay); format: in vivo, human; conditions: 3 normal volunteers
Description: FIG. 37 depicts fasting serum fructose and glucose levels in patients with pancreatic cancer and in normal volunteers in accordance with an embodiment of the present invention. (a) Fasting serum fructose and glucose levels in 6 patients with pancreatic cancer on the morning of resection. (b) Serum fructose, and glucose levels (Mean±SEM) in 3 normal volunteers after a 10 h fast, followed by ingestion of two cans of soda, containing 76 g of carbohydrate in the form of high fructose corn syrup (55% fructose, 45% glucose).
The normal circulating concentrations of fructose are unknown. […] Briefly, aliquots (20 μl) of fructose standards (0.1, 0.5, 1, 2, 4, 6, and 8 mM) or unknown serum samples were mixed with 5 μl of a stock solution (125 U/ml) of the enzyme fructose dehydrogenase (Sigma) in 175 μl citric acid (0.05 M) phosphate (0.09 M) buffer (pH 4.5), and 20 μl of 3-(4,5-dimethylthiazol-2yl)-2,5-diphenyltetrazolium bromide (MTT), and phenazine methosulfate (Promega), incubated for 30 minutes, after which absorbance at 570 nm was recorded in a 96-well spectrophotometer. […] As the first analysis, in accordance with institutional review board guidelines, the inventors obtained 32 serum samples randomly selected from anonymous inpatients at Cedars-Sinai Medical Center. The inventors also measured glucose in these same samples using standard glucose oxidase based methods. […]

O=C(CO)[C@@H](O)[C@H](O)[C@H](O)CO [fructose]
TKK activity in comparison to 5.5 mM glucose-treated cells (transketolase (TKK)): 1.7 fold higher | substrate oxidation to CO2 (normal pancreas tissue): effectively oxidizes | mean serum fructose levels, peak ([1]; 30 minutes after two sodas): 17 mM | serum fructose levels ([1]; for the 2 hour duration of blood sampling): greater than 5 mM
